Where a name gives a salt, the structure may show the parent alone. Read-outs that look alike come from different tables or passages of the source.
Experiments:
[1] = target: His-GST-TVMV-hRIPK1(1-324) (Homo sapiens (Human), UniProt Q13546); experiment: RIPK1 HTRF Binding Assay; conditions: HTRF binding, 1 h at rt; read-out: RIPK1 (IC50)
Outline: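 HTRF probe-displacement binding: 1 nM His-GST-TVMV-hRIPK1(1-324) (baculovirus construct), 90.6 nM probe, 0.2 nM anti-GST-Tb in 20 mM HEPES, 10 mM MgCl2, 0.015% Brij-35, 4 mM DTT, 0.05 mg/mL BSA. Incubated 1 h at rt; FRET 520/495 nm ratio, inhibition relative to DMSO-only wells.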

[2] = system: MLKL phosphorylation in HT29-L23 human colorectal adenocarcinoma cells; experiment: MLKL Phosphorylation High-Content Assay; type: cell-based; conditions: 6 h, necroptosis induced with TNFα, SMAC mimetic and Z-VAD, read-out: pMLKL (IC50)
Outline: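 HT29-L23 cells pretreated 30 min at 37 °C with compound (6.25 to 0.106 μM final), then necroptosis induced with TNFα 35 ng/mL, SMAC mimetic 700 nM and Z-VAD 140 nM for 6 h. Fixed cells immunostained for MLKL pS358 and imaged; IC50 and Ymax from 4-parameter logistic fit.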

Sequence of His-GST-TVMV-hRIPK1(1-324) (Q13546 1-324): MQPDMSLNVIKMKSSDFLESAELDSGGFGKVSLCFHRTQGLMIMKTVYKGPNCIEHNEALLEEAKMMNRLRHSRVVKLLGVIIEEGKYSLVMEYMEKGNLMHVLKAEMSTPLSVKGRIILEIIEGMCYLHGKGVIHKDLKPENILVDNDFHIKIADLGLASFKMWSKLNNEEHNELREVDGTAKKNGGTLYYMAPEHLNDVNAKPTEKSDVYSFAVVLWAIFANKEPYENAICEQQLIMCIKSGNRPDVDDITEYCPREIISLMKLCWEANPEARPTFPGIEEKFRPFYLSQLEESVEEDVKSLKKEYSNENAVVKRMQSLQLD

| SMILES | IC50 [1] | IC50 ([2]; Homo sapiens) | IC50 [2] |
| --- | --- | --- | --- |
| CC(=O)Nc1cn2nc(-c3cc(C(=O)NCc4cc(F)cc(F)c4OC4CC(C)OC(C)C4)c(C)nc3C)ccc2n1 (centres unmarked) [Example 64, N-({2-[(2,6-dimethyloxan-4-yl)oxy]-3,5-difluorophenyl}methyl)-5-{2-acetamidoimidazo[1,2-b]pyridazin-6-yl}-2,6-dimethylpyridine-3-carboxamide] | 49 nM | 45 nM | – |
| COc1ncc(-c2ccc3nc(NC(C)=O)cn3n2)cc1C(=O)NCc1cc(F)cc(F)c1OCC1CCC1 [Example 97, N-{[2-(cyclobutylmethoxy)-3,5-difluorophenyl]methyl}-5-{2-acetamidoimidazo[1,2-b]pyridazin-6-yl}-2-methoxypyridine-3-carboxamide] | 2 nM | 2 nM | – |
| CC(=O)Nc1cn2nc(-c3cnc(C)c(C(=O)NCc4cccnc4OCC4CCCC4)c3)ccc2n1 [Example 217, N-{[2-(cyclopentylmethoxy)pyridin-3-yl]methyl}-5-{2-acetamidoimidazo [1,2-b]pyridazin-6-yl}-2-methylpyridine-3-carboxamide] | 54 nM | 205 nM | – |
| COc1nc(C)c(-c2ccc3nc(NC(C)=O)cn3n2)cc1C(=O)NCc1cc(OC(F)(F)F)ccc1F [Example 311, 5-{2-acetamidoimidazo[1,2-b]pyridazin-6-yl}-N-{[2-fluoro-5-(trifluoromethoxy)phenyl]methyl}-2-methoxy-6-methylpyridine-3-carboxamide, TFA] | 6 nM | – | 4 nM |
| [2H]C([2H])([2H])Oc1ncc(-c2ccc3nc(NC(C)=O)cn3n2)cc1C(=O)N[C@@H](C)c1cc(OC(F)(F)F)ccc1F [Example 41, 5-{2-acetamidoimidazo[1,2-b]pyridazin-6-yl}-N-[(1S)-1-[2-fluoro-5-(trifluoromethoxy)phenyl]ethyl]-2-(D3)methoxypyridine-3-carboxamide] | 63 nM | 78 nM | – |
| CC(=O)Nc1cn2nc(-c3cnc(C)c(C(=O)Nc4cn(Cc5ccc(F)cc5)cn4)c3)ccc2n1 [Example 350, 5-{2-acetamidoimidazo[1,2-b]pyridazin-6-yl}-N-{1-[(4-fluorophenyl)methyl]-1H-imidazol-4-yl}-2-methylpyridine-3-carboxamide] | 27 nM | 169 nM | – |
| CC(=O)Nc1cn2nc(-c3cnc(C)c(C(=O)NCc4cccc(OCC(F)(F)F)c4)c3)ccc2n1 [Example 194, 5-{2-acetamidoimidazo[1,2-b]pyridazin-6-yl}-2-methyl-N-{[3-(2,2,2-trifluoroethoxy)phenyl]methyl}pyridine-3-carboxamide] | 100 nM | 141 nM | – |
| CC(=O)Nc1cn2nc(-c3cnc(C)c(C(=O)N(C)[C@H](C)c4cc(OC(F)(F)F)ccc4F)c3)ccc2n1 [Example 330, 5-{2-acetamidoimidazo[1,2-b]pyridazin-6-yl}-N-[(1R)-1-[2-fluoro-5-(trifluoromethoxy)phenyl]ethyl]-N,2-dimethylpyridine-3-carboxamide] | 46 nM | 106 nM | – |
| Cc1ncc(-c2ccc3nc(NC(=O)CN(C)C)cn3n2)cc1C(=O)N[C@H](C)c1cc(OC(F)(F)F)ccc1F [Example 338, 5-{2-[2-(dimethylamino)-acetamido]-imidazo[1,2-b]pyridazin-6-yl}-N-[(1R)-1-[2-fluoro-5-(trifluoromethoxy)-phenyl]ethyl]-2-methylpyridine-3-carboxamide] | 21 nM | 50 nM | – |
| CC(=O)Nc1cn2nc(-c3cc(C(=O)NCc4ccccc4OCC(F)(F)F)c(C)nc3C)ccc2n1 [Example 68, 5-{2-acetamidoimidazo[1,2-b]pyridazin-6-yl}-2,6-dimethyl-N-{[2-(2,2,2-trifluoroethoxy)phenyl]methyl}pyridine-3-carboxamide] | 5 nM | 45 nM | – |
| COc1ncc(-c2ccc3nc(NC(C)=O)cn3n2)cc1C(=O)NC(C)c1cc(F)cc(F)c1OCC1CC1 (centres unmarked) [Example 130, N-{1-[2-(cyclopropylmethoxy)-3,5-difluorophenyl]ethyl}-5-{2-acetamidoimidazo[1,2-b]pyridazin-6-yl}-2-methoxypyridine-3-carboxamide] | 4 nM | – | 3 nM |
| CC(=O)Nc1cn2nc(-c3ccc(Cl)c(C(=O)NCC[C@@H](O)c4ccc(Cl)cc4)c3)ccc2n1 [Example 386, 2-chloro-N-[(3R)-3-(4-chlorophenyl)-3-hydroxypropyl]-5-{2-acetamidoimidazo [1,2-b]pyridazin-6-yl}benzamide] | 5 nM | 13 nM | – |
| CC(=O)Nc1cn2nc(-c3cc(C(=O)NCc4cc(F)cc(F)c4OCC4CC4)c(C)nc3C)ccc2n1 [Example 87, N-{[2-(cyclopropylmethoxy)-3,5-difluorophenyl]methyl}-5-{2-acetamidoimidazo[1,2-b]pyridazin-6-yl}-2,6-dimethylpyridine-3-carboxamide] | 3 nM | 3 nM | – |
| CC(=O)Nc1cn2nc(-c3cc(C(=O)NCc4cc(F)cc(F)c4OC4CCOCC4)c(C)nc3C)ccc2n1 [Example 78, N-{[3,5-difluoro-2-(oxan-4-yloxy)phenyl]methyl}-5-{2-acetamidoimidazo[1,2-b]pyridazin-6-yl}-2,6-dimethylpyridine-3-carboxamide] | 16 nM | 21 nM | – |
| [2H]C([2H])([2H])Oc1ncc(-c2ccc3nc(NC(C)=O)cn3n2)cc1C(=O)NCc1ccccc1OC(F)(F)F [Example 14, 5-{2-acetamidoimidazo[1,2-b]pyridazin-6-yl}-2-(D3)methoxy-N-{[2-(trifluoromethoxy)phenyl]methyl}pyridine-3-carboxamide] | 33 nM | 69 nM | – |
| CCC(=O)Nc1cn2nc(-c3cnc(OC)c(C(=O)NCc4ccccc4OC(F)(F)F)c3)ccc2n1 [Example 248, 2-methoxy-5-{2-propanamidoimidazo[1,2-b]pyridazin-6-yl}-N-{[2-(trifluoromethoxy)phenyl]methyl}pyridine-3-carboxamide, TFA] | 13 nM | 55 nM | – |
| [2H]C([2H])([2H])Oc1ncc(-c2ccc3nc(NC(C)=O)cn3n2)cc1C(=O)NC(C)c1cc(C(F)(F)F)ccc1F (centres unmarked) [Example 52, 5-{2-acetamidoimidazo[1,2-b]pyridazin-6-yl}-N-{1-[2-fluoro-5-(trifluoromethyl)phenyl]ethyl}-2-(D3)methoxypyridine-3-carboxamide] | 65 nM | – | 185 nM |
| CCC(=O)Nc1cn2nc(-c3cnc(OC)c(C(=O)NCc4ccc(F)c(F)c4OCC4CC4)c3)ccc2n1 [Example 249, N-{[2-(cyclopropylmethoxy)-3,4-difluorophenyl]methyl}-2-methoxy-5-{2-propanamidoimidazo[1,2-b]pyridazin-6-yl}pyridine-3-carboxamide] | 29 nM | 132 nM | – |
| COc1ncc(-c2ccc3nc(NC(C)=O)cn3n2)cc1C(=O)NCc1c(F)cccc1OC1CCOCC1 [Example 128, 5-{2-acetamidoimidazo[1,2-b]pyridazin-6-yl}-N-{[2-fluoro-6-(oxan-4-yloxy)phenyl]methyl}-2-methoxypyridine-3-carboxamide, TFA] | 9 nM | – | 64 nM |
| CC(=O)Nc1cn2nc(-c3cc(C(=O)NCc4cc(OC(F)(F)F)ccc4F)cnc3C)ccc2n1 [Example 234, 5-{2-acetamidoimidazo[1,2-b]pyridazin-6-yl}-N-{[2-fluoro-5-(trifluoromethoxy)phenyl]methyl}-6-methylpyridine-3-carboxamide] | 46 nM | 71 nM | – |
| CC(=O)Nc1cn2nc(-c3cnc(C(F)(F)F)c(C(=O)NCc4cc(OC(F)(F)F)ccc4F)c3)ccc2n1 [Example 18, 5-{2-acetamidoimidazo[1,2-b]pyridazin-6-yl}-N-{[2-fluoro-5-(trifluoromethoxy)phenyl]methyl}-2-(trifluoromethyl)pyridine-3-carboxamide] | 145 nM | 177 nM | – |
| CC(=O)Nc1cn2nc(-c3cc(C(=O)NCc4ncccc4OCC(F)(F)F)c(C)nc3C)ccc2n1 [Example 65, 5-{2-acetamidoimidazo[1,2-b]pyridazin-6-yl}-2,6-dimethyl-N-{[3-(2,2,2-trifluoroethoxy)pyridin-2-yl]methyl}pyridine-3-carboxamide] | 44 nM | 374 nM | – |
| [2H]C([2H])([2H])Oc1nc(C)c(-c2ccc3nc(NC(C)=O)cn3n2)cc1C(=O)NC(C)c1ccccc1OC(F)(F)F (single isomer, unassigned) [Example 13-2, 5-{2-acetamidoimidazo[1,2-b]pyridazin-6-yl}-2-(D3)methoxy-6-methyl-N-{1-[2-(trifluoromethoxy)phenyl]ethyl}pyridine-3-carboxamide] | 6 nM | – | 1 nM |
| [2H]C([2H])([2H])[C@@H](NC(=O)c1cc(-c2ccc3nc(NC(C)=O)cn3n2)cnc1C)c1cc(C(F)(F)F)ccc1F [Example 197, 5-{2-acetamidoimidazo[1,2-b]pyridazin-6-yl}-N-[(1R)-1-[2-fluoro-5-(trifluoromethyl)phenyl](2,2,2-deutero)ethyl]-2-methylpyridine-3-carboxamide] | 72 nM | 23 nM | – |
| Cc1ncc(-c2ccc3nc(NC(=O)CN4CCN(C)CC4)cn3n2)cc1C(=O)N[C@H](C)c1cc(OC(F)(F)F)ccc1F [Example 336, N-[(1R)-1-[2-fluoro-5-(trifluoromethoxy)-phenyl]ethyl]-2-methyl-5-{2-[2-(4-methylpiperazin-1-yl)acetamido]imidazo[1,2-b]pyridazin-6-yl}pyridine-3-carboxamide] | 19 nM | 8 nM | – |
